According to the NIST ThermoML archive (doi:10.1016/j.fluid.2006.06.013):
Numbers after ± are expanded uncertainties.

Legend:
[1] = for vapor or sublimation pressure: Liquid
[2] = refractive index (Na D-line) (dimensionless); settings: 293.2 K; 101.33 kPa; Liquid; Standard Abbe refractometry

Compound | vapor or sublimation pressure ([1]; 417.59 K) | vapor or sublimation pressure ([1]; 425.4 K) | vapor or sublimation pressure ([1]; 435.12 K) | vapor or sublimation pressure ([1]; 444.5 K) | vapor or sublimation pressure ([1]; 454.9 K) | vapor or sublimation pressure ([1]; 466.01 K) | vapor or sublimation pressure ([1]; 475.82 K) | vapor or sublimation pressure ([1]; 486.11 K) | vapor or sublimation pressure ([1]; 496.11 K) | vapor or sublimation pressure ([1]; 506.87 K) | vapor or sublimation pressure ([1]; 516.84 K) | vapor or sublimation pressure ([1]; 525.54 K) | refractive index [2] | Normal melting temperature ([1]; Crystal, visual observation)
COC(=O)c1ccccc1C(=O)OC [dimethyl 1,2-benzenedicarboxylate] | 0.934 ± 0.12 kPa | 1.466 ± 0.13 kPa | 2.21 ± 0.13 kPa | 3.356 ± 0.13 kPa | 5.164 ± 0.13 kPa | 7.823 ± 0.14 kPa | 11.13 ± 0.14 kPa | 15.42 ± 0.15 kPa | 20.93 ± 0.15 kPa | 28.7 ± 0.17 kPa | 38.16 ± 0.18 kPa | 48.71 ± 0.2 kPa | 1.516 ± 0.001 | 
O=C1C=CC(=O)O1 [maleic anhydride] |  |  |  |  |  |  |  |  |  |  |  |  |  | 52.5 ± 0.5 °C
